Among the data in patent US9611221B2, “Histone demethylase inhibitors” (CELGENE QUANTICEL RESEARCH, INC., priority 2012, dated 2017) are IC50 values, retold here.

One assay concerns the target Jarid1B (Homo sapiens (Human), UniProt Q9UGL1). The experiment in a line: Jarid1B in vitro enzyme inhibition assay (TR-FRET). It counts as biochemical. The note with it: 0.8 nM Jarid1B, 300 nM H3K4me3-biotin peptide, 2 μM alpha-ketoglutaric acid. The source says: (§1) This assay determines the ability of a test compound to inhibit Jarid1A, Jarid1B, and JMJD2C demethylase activity. Baculovirus expressed Jarid1A (GenBank Accession #NM_001042603, AA1-1090) was purchased from BPS Bioscience (Cat#50110). Baculovirus expressed Jarid1B (GenBank Accession #NM_006618, AA 2-751) was purchased from BPS Bioscience (Cat #50121) or custom made by MolecularThroughput. Baculovirus expressed JMJD2C (GenBank Accession #BC143571, AA 2-372) was purchased from BPS Bioscience (Cat#50105).
The ability of test compounds to inhibit the activity of Jarid1B was determined in 384-well plate format under the following reaction conditions: 0.8 nM Jarid1B, 300 nM H3K4me3-biotin labeled peptide (Anaspec cat #64357), 2 μM alpha-ketoglutaric acid in assay buffer of 50 mM HEPES, pH7.3, 0.005% Brij35, 0.5 mM TCEP, 0.2 mg/ml BSA, 50 μM sodium L-ascorbate, and 2 μM ammonium iron(II) sulfate. Reaction product was determined quantitatively by TR-FRET after the addition of detection reagent Phycolink Streptavidin-allophycocyanin (Prozyme) and Europium-anti-mono- or di-methylated histone H3 lysine 4 (H3K4me1-2) antibody (PerkinElmer) in the presence of 5 mM EDTA in LANCE detection buffer (PerkinElmer) at a final concentration of 25 nM and 1 nM, respectively.
The reaction mixture was incubated at room temperature for 30 minutes, and terminated by the addition of 6 μl of 5 mM EDTA in LANCE detection buffer containing 50 nM Phycolink Streptavidin-allophycocyanin and 2 nM Europium-anti-H3K4me1-2 antibody. Plates were read by EnVisionMultilabel Reader in TR-FRET mode (excitation at 320 nm, emission at 615 nm and 665 nm) after 1 hour incubation at room temperature. A ratio was calculated (665/615) for each well and fitted to determine inhibition constant (IC50).

Another assay addresses JMJD2C (Homo sapiens (Human), UniProt Q9H3R0). Kind of assay: JMJD2C in vitro enzyme inhibition assay (TR-FRET). It counts as biochemical. The note with it: 0.3 nM JMJD2C, 300 nM H3K9me3-biotin peptide, 2 μM alpha-ketoglutaric acid.
Text: as §1
The ability of test compounds to inhibit the activity of JMJD2C was determined in 384-well plate format under the following reaction conditions: 0.3 nM JMJD2C, 300 nM H3K9me3-biotin labeled peptide (Anaspec cat #64360), 2 μM alpha-ketoglutaric acid in assay buffer of 50 mM HEPES, pH7.3, 0.005% Brij35, 0.5 mM TCEP, 0.2 mg/ml BSA, 50 μM sodium L-ascorbate, and 2 μM ammonium iron(II) sulfate. Reaction product was determined quantitatively by TR-FRET after the addition of detection reagent Phycolink Streptavidin-allophycocyanin (Prozyme) and Europium-anti-di-methylated histone H3 lysine 9 (H3K9me2) antibody (PerkinElmer) in the presence of 5 mM EDTA in LANCE detection buffer (PerkinElmer) at a final concentration of 50 nM and 1 nM, respectively.
The reaction mixture was incubated at room temperature for 30 minutes, and terminated by the addition of 6 μl of 5 mM EDTA in LANCE detection buffer containing 100 nM Phycolink Streptavidin-allophycocyanin and 2 nM Europium-anti-H3K9me2 antibody. Plates were read by EnVisionMultilabel Reader in TR-FRET mode (excitation at 320 nm, emission at 615 nm and 665 nm) after 1 hour incubation at room temperature. A ratio was calculated (665/615) for each well and fitted to determine inhibition constant (IC50).

Chain of Jarid1B (Q9UGL1 2-751): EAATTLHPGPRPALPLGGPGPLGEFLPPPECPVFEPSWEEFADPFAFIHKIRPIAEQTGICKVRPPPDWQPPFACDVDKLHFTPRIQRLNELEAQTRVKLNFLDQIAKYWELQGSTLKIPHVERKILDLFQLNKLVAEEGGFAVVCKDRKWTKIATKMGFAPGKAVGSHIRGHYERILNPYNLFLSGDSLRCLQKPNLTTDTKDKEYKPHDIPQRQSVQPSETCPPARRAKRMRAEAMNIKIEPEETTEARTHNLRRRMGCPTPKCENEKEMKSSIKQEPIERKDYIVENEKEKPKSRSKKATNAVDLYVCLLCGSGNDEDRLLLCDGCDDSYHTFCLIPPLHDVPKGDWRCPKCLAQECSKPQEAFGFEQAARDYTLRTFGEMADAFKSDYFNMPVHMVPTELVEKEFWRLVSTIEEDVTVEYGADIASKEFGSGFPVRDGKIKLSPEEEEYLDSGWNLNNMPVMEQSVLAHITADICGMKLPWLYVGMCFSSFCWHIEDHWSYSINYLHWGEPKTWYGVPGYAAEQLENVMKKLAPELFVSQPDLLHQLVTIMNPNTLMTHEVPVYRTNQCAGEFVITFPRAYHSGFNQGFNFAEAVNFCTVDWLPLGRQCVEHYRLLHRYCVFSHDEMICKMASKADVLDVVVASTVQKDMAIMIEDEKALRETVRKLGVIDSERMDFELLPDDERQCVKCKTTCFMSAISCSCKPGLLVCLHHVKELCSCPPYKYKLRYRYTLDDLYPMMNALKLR
Chain of JMJD2C (Q9H3R0 2-372): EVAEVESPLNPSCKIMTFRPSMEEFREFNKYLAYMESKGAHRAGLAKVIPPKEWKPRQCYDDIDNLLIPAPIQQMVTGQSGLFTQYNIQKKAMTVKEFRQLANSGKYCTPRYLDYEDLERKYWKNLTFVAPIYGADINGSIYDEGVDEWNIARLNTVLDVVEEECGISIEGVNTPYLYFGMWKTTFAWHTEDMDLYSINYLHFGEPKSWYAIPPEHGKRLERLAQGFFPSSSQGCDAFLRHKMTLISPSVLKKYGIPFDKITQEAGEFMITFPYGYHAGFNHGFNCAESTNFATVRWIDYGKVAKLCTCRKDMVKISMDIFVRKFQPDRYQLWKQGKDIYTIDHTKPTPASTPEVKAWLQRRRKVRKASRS

On to `O=C(O)c1ccncc1NCc1ccccc1F` [Example 2, 3-[(2-fluorobenzyl)amino)pyridine-4-carboxylic acid], for which the IC50 on Jarid1B and against JMJD2C was no more than 100 nM throughout. As to `O=C(O)c1ccncc1NCc1cccc(F)c1` [Example 3, 3-[(3-fluorobenzyl)amino)pyridine-4-carboxylic acid], the IC50 at Jarid1B and at JMJD2C was no more than 100 nM throughout.

For `COc1ccc(CNc2cnccc2C(=O)O)cc1` [Example 7, 3-[(4-methoxybenzyl)amino]pyridine-4-carboxylic acid], the IC50 against Jarid1B and against JMJD2C was no more than 100 nM in each case. With `O=C(O)c1ccncc1NCc1ccc(-c2ccccc2)cc1` [Example 9, 3-[(biphenyl-4-ylmethyl)amino]pyridine-4-carboxylic acid], the IC50 fell in the range of 100 to 1000 nM against Jarid1B and 1000 to 10000 nM against JMJD2C. As for `O=C(O)c1ccncc1NCc1ccc(Cl)cc1` [Example 10, 3-[(4-chlorobenzyl)amino]pyridine-4-carboxylic acid], the IC50 at Jarid1B and at JMJD2C was no more than 100 nM in each case.

In the case of `O=C(O)c1ccncc1NCc1ccc(Oc2ccccc2)cc1` [Example 12, 3-[(4-phenoxybenzyl)amino]pyridine-4-carboxylic acid], the IC50 was no more than 100 nM on Jarid1B and 100 to 1000 nM on JMJD2C. `CN(C)Cc1ccccc1CNc1cnccc1C(=O)O` [Example 13, 3-({2-[(dimethylamino)methyl]benzyl}amino)pyridine-4-carboxylic acid]: the IC50 against Jarid1B and on JMJD2C was no more than 100 nM each time. Take `O=C(O)c1ccncc1NCc1ccc(Cl)c(Cl)c1` [Example 14]: the IC50 against Jarid1B and at JMJD2C was no more than 100 nM in each case. In the case of `Cc1cc(Cl)ccc1CNc1cnccc1C(=O)O` [Example 15, 3-[(4-chloro-2-methylbenzyl)amino]pyridine-4-carboxylic acid], the IC50 against Jarid1B and against JMJD2C was no more than 100 nM throughout. On to `COc1ccc(CNc2cnccc2C(=O)O)c(OC)c1` [Example 16, 3-[(2,4-dimethoxyoxybenzyl)amino]pyridine-4-carboxylic acid], for which the values for the IC50 at Jarid1B and against JMJD2C were no more than 100 nM and 100 to 1000 nM, respectively. The like results for `O=C(O)c1ccncc1NCc1ccccc1O` [Example 17, 3-[(2-hydroxybenzyl)amino]pyridine-4-carboxylic acid] were, in that order, no more than 100 nM and no more than 100 nM. With `O=C(O)c1ccncc1NCc1ccccc1C1CC1` [Example 19, 3-[(2-cyclopropylbenzyl)amino]pyridine-4-carboxylic acid], the IC50 against Jarid1B and against JMJD2C was no more than 100 nM in each case. `O=C(O)c1ccncc1NC[C@H]1CCOc2cc(C3CC3)ccc21` [Example 87, 3-({[(4S)-7-cyclopropyl-3,4-dihydro-2H-chromen-4-yl]methyl}amino)pyridine-4-carboxylic acid]: the half-inhibitory concentration (IC50) against JMJD2C was no more than 100 nM. For the molecule `O=C(O)c1ccncc1NC[C@@H]1CCOc2cc(C3CC3)ccc21` [Example 88, 3-({[(4R)-7-cyclopropyl-3,4-dihydro-2H-chromen-4-yl]methyl}amino)pyridine-4-carboxylic acid], at JMJD2C, the IC50 is 100 to 1000 nM. With `O=C(O)c1ccncc1NCC1CCCc2cc(OCCc3ccccc3)ccc21` (stereo not drawn) [Example 89, 3-({[6-(2-phenylethoxy)-1,2,3,4-tetrahydronaphthalen-1-yl]methyl}amino)pyridin-4-carboxylic acid], at JMJD2C, the IC50 was in the range of 100 to 1000 nM. Turning to `O=C(O)c1ccncc1NCC1CCCc2cc(OCC(F)(F)F)ccc21` (stereo not drawn) [Example 90, 3-({[6-(2,2,2-trifluoroethoxy)-1,2,3,4-tetrahydronaphthalen-1-yl]methyl}amino)pyridine-4-carboxylic acid], the IC50 at JMJD2C fell in the range of 100 to 1000 nM. The molecule `O=C(O)c1ccncc1NCC1CCOc2cc(CCC3CC3)ccc21` (stereo not drawn) [Example 91, 3-({[7-(2-cyclopropylethyl)-3,4-dihydro-2H-chromen-4-yl]methyl}amino)pyridine-4-carboxylic acid] showed an IC50 on JMJD2C of 100 to 1000 nM. `O=C(O)c1ccncc1NCC1CCCc2cc(OC(F)(F)F)ccc21` (stereo not drawn) [Example 92, 3-({[6-(trifluoromethoxy)-1,2,3,4-tetrahydronaphthalen-1-yl]methyl}amino)pyridine-4-carboxylic acid] displayed an IC50 against JMJD2C of 1000 to 10000 nM. On JMJD2C, `O=C(O)c1ccncc1NC[C@H]1CCOc2cc(-c3ccc(F)cc3)ccc21` [Example 93, 3-({[(4S)-7-(4-fluorophenyl)-3,4-dihydro-2H-chromen-4-yl]methyl}amino)pyridine-4-carboxylic acid] showed an IC50 of 100 to 1000 nM. As to `O=C(O)c1ccncc1NC[C@@H]1CCOc2cc(-c3ccc(F)cc3)ccc21` [Example 94, 3-({[(4R)-7-(4-fluorophenyl)-3,4-dihydro-2H-chromen-4-yl]methyl}amino)pyridine-4-carboxylic acid], the IC50 against JMJD2C was 1000 to 10000 nM.

On JMJD2C, `O=C(O)c1ccncc1NC[C@H]1CCOc2cc(-c3ccccc3F)ccc21` [Example 95, 3-({[(4S)-7-(2-fluorophenyl)-3,4-dihydro-2H-chromen-4-yl]methyl}amino)pyridine-4-carboxylic acid] registered an IC50 of 100 to 1000 nM.

At JMJD2C, `O=C(O)c1ccncc1NC[C@@H]1CCOc2cc(-c3ccccc3F)ccc21` [Example 96, 3-({[(4R)-7-(2-fluorophenyl)-3,4-dihydro-2H-chromen-4-yl]methyl}amino)pyridine-4-carboxylic acid] registered an IC50 of 1000 to 10000 nM. With `O=C(O)c1ccncc1NC[C@H]1CCCc2cc(OCCC3CC3)ccc21` [Example 97, 3-({[(1S)-6-(2-cyclopropylethoxy)-1,2,3,4-tetrahydronaphthalen-1-yl]methyl}amino)pyridine-4-carboxylic acid], on JMJD2C, the IC50 lay within 100 to 1000 nM. Same read-out and setting: the same measure for `O=C(O)c1ccncc1NC[C@@H]1CCCc2cc(OCCC3CC3)ccc21` [Example 98, 3-({[(1R)-6-(2-cyclopropylethoxy)-1,2,3,4-tetrahydronaphthalen-1-yl]methyl}amino)pyridine-4-carboxylic acid]: 1000 to 10000 nM; for `O=C(O)c1ccncc1NC[C@H]1CCCc2cc(OCCC(F)(F)F)ccc21` [Example 99, 3-({[(1S)-6-(3,3,3-trifluoropropoxy)-1,2,3,4-tetrahydronaphthalen-1-yl]methyl}amino)pyridine-4-carboxylic acid]: 100 to 1000 nM.

At JMJD2C, `O=C(O)c1ccncc1NC[C@@H]1CCCc2cc(OCCC(F)(F)F)ccc21` [Example 100, 3-({[(1R)-6-(3,3,3-trifluoropropoxy)-1,2,3,4-tetrahydronaphthalen-1-yl]methyl}amino)pyridine-4-carboxylic acid] came in with an IC50 of 100 to 1000 nM. On the same count and under the same terms, to `O=C(O)c1ccnnc1NCC1CCCc2cc(OCCC(F)(F)F)ccc21` (stereo not drawn) [Example 101, 3-({[6-(3,3,3-trifluoropropoxy)-1,2,3,4-tetrahydronaphthalen-1-yl]methyl}amino)pyridazine-4-carboxylic acid] belongs 100 to 1000 nM. Still for that read-out and setting: to `COc1ccc2c(c1F)CCCC2CNc1cnccc1C(=O)O` (stereo not drawn) [Example 102, 3-{[(5-fluoro-6-methoxy-1,2,3,4-tetrahydronaphthalen-1-yl)methyl]amino}pyridine-4-carboxylic acid] belongs 100 to 1000 nM; to `Cc1ccc2c(c1C)CCCC2CNc1cnccc1C(=O)O` (stereo not drawn) [Example 103, 3-{[(5,6-dimethyl-1,2,3,4-tetrahydronaphthalen-1-yl)methyl]amino}pyridine-4-carboxylic acid], 100 to 1000 nM; to `O=C(O)c1ccncc1NCC1CCCc2cc(Oc3cccc(C(F)(F)F)n3)ccc21` (stereo not drawn) [Example 104, 3-{[(6-{[6-(trifluoromethyl)pyridin-2-yl]oxy}-1,2,3,4-tetrahydronaphthalen-1-yl)methyl]amino}pyridine-4-carboxylic acid], 100 to 1000 nM.
